How the values were obtained:
[1] = Selectivity ratio of IC50 for adrenergic beta2 receptor to IC50 for adrenergic beta1 receptor
[2] = biological target: Beta-1 adrenergic receptor (Homo sapiens, UniProt P08588); test: Displacement of [3H](-)-CGP-12177 from adrenergic beta1 receptor by cell based assay
Lung [3] = test: Biodistribution in Sprague-Dawley rat lung at 15 uCi after 30 mins by gamma counting; format: ADME, organism-based; details: in vivo, 0.5 h
Spleen = test: Biodistribution in Sprague-Dawley rat spleen at 15 uCi after 30 mins by gamma counting; format: ADME, organism-based; details: in vivo, 0.5 h
Liver [4] = test: Biodistribution in Sprague-Dawley rat liver at 15 uCi after 30 mins by gamma counting; format: ADME, organism-based; details: in vivo, 0.5 h
Kidney = test: Biodistribution in Sprague-Dawley rat kidney at 15 uCi after 30 mins by gamma counting; format: ADME, organism-based; details: in vivo, 0.5 h
Liver [5] = test: Drug uptake in Sprague-Dawley rat liver at 1 mCi after 30 mins by microPET analysis; format: ADME, tissue-based; details: in vivo, 0.5 h
Liver [6] = test: Drug uptake in Sprague-Dawley rat liver at 1 mCi after 60 mins by microPET analysis; format: ADME, tissue-based; details: in vivo, 1 h
Heart = test: Biodistribution in Sprague-Dawley rat heart at 15 uCi after 30 mins by gamma counting; format: ADME, organism-based; details: in vivo, 0.5 h
Blood = test: Biodistribution in Sprague-Dawley rat blood at 15 uCi after 30 mins by gamma counting; format: ADME, organism-based; details: in vivo, 0.5 h
[7] = Ratio of drug level in lung to heart in Sprague-Dawley rat at 15 uCi after 30 mins by gamma counting; details: in vivo, 0.5 h
Muscle tissue = test: Biodistribution in Sprague-Dawley rat muscle at 15 uCi after 30 mins by gamma counting; format: ADME, organism-based; details: in vivo, 0.5 h
Femur = test: Biodistribution in Sprague-Dawley rat femur at 15 uCi after 30 mins by gamma counting; format: ADME, organism-based; details: in vivo, 0.5 h
[8] = Drug uptake in Sprague-Dawley rat myocardium at 1 mCi after 60 mins by microPET analysis; format: ADME, tissue-based; details: in vivo, 1 h
[9] = Drug uptake in Sprague-Dawley rat myocardium at 1 mCi after 30 mins by microPET analysis; format: ADME, tissue-based; details: in vivo, 0.5 h
Lung [10] = test: Drug uptake in Sprague-Dawley rat lung after <5 mins by microPET analysis; format: ADME, tissue-based; details: in vivo
[11] = Drug excretion in rat urine assessed as parent compound at 1 mCi/kg, iv after 30 mins by HPLC analysis; format: ADME, organism-based; details: read-out: Drug excretion
Rattus norvegicus [12] = test: Drug metabolism in rat assessed as progressive loss of parent compound at 1 mCi/kg, iv after 2 mins by HPLC analysis; format: ADME, organism-based; details: in vivo
Liver [13] = test: Drug uptake in Sprague-Dawley rat liver after <5 mins by microPET analysis; format: ADME; details: in vivo
[14] = Drug uptake in Sprague-Dawley rat myocardium after <5 mins by microPET analysis; format: ADME, tissue-based; details: in vivo
Rattus norvegicus [15] = test: Drug metabolism in rat assessed as progressive loss of parent compound at 1 mCi/kg, iv after 30 mins by HPLC analysis; format: ADME, organism-based; details: in vivo, 0.5 h

Chain of Beta-1 adrenergic receptor (P08588 whole entry): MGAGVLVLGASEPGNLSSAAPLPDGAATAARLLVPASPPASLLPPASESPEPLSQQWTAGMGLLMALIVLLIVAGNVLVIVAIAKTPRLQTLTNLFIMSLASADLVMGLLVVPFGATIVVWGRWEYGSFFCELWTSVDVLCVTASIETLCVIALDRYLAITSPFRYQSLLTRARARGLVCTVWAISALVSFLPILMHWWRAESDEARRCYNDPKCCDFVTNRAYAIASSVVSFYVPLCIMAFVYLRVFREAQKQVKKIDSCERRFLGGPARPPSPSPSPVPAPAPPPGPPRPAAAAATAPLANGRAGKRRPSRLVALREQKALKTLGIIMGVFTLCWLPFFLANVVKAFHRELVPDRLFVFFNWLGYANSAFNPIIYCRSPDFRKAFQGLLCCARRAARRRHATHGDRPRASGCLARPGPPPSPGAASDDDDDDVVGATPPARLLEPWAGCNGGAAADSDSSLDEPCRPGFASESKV

SMILES | Ratio IC50 [1] | IC50 [2] | also measured
CC(CF)Nc1ccc(NC(=O)NCCNC[C@H](O)COc2ccccc2C#N)cc1 (stereo partly drawn) | 13 | 1.5 nM | 
N#Cc1ccccc1OC[C@@H](O)CNCCNC(=O)NC1CCN(CCF)CC1 | 0.05 | > 100 nM | 
N#Cc1c(F)cccc1OC[C@@H](O)CNCCNC(=O)Nc1ccc(C(=O)O)cc1 | 164 | 21 nM | 
N#Cc1ccccc1OC[C@@H](O)CNCCNC(=O)Nc1ccc(Br)nc1 | > 1000 | 0.05 nM | 
N#Cc1ccc(F)cc1OC[C@@H](O)CNCCNC(=O)Nc1ccc(C(=O)O)cc1 | 70 | 2 nM | 
N#Cc1ccccc1OC[C@@H](O)CNCCNC(=O)Nc1cnc(Br)cn1 | 163 | 0.35 nM | 
N#Cc1ccccc1OC[C@@H](O)CNCCNC(=O)Nc1ccc(OCCCF)cc1 | 65 | 0.25 nM | 
N#Cc1ccccc1OC[C@@H](O)CNCCNC(=O)Nc1ccc(I)nc1 | 723 | 0.05 nM | 
N#Cc1ccccc1OC[C@@H](O)CNCCNC(=O)Nc1nnn(CCF)n1 | 10 | 10 nM | 
N#Cc1ccccc1OC[C@@H](O)CNCCNC(=O)c1ccc(F)nc1 | 4 | 10 nM | 
N#Cc1ccccc1OC[C@@H](O)CNCCNS(=O)(=O)c1ccccc1F | 0.1 | 5 nM | 
CCOc1ccc(NC(=O)NCCNC[C@H](O)COc2cccc(F)c2C#N)cc1 | 32 | 2 nM | 
N#Cc1ccccc1OC[C@@H](O)CNCCNC(=O)Nc1nccs1 | 8 | 26 nM | 
COc1ccc(NC(=O)NCCNC[C@H](O)COc2ccccc2C#N)cc1 | 145 | 0.11 nM | 
N#Cc1ccccc1OC[C@@H](O)CNCCNC(=O)Cc1ccc(F)cc1 | 6 | 0.14 nM | 
N#Cc1ccccc1OC[C@@H](O)CNCCNC(=O)Nc1ccc(C(=O)O)c(F)c1 | 511 | 1 nM | 
N#Cc1ccccc1OC[C@@H](O)CNCCCC(=O)Nc1ccc(F)nc1 | 30 | 3 nM | 
N#Cc1ccccc1OC[C@@H](O)CNCCNC(=O)Nc1ccc(OCC[18F])cc1 |  |  | Drug uptake (Lung [3]): 0.97 % ID/g; Drug uptake (Spleen): 0.37 % ID/g; Drug uptake (Liver [4]): 1.14 % ID/g; Drug uptake (Kidney): 1.26 % ID/g; Drug uptake (Liver [5]): Active; Drug uptake (Liver [6]): Not Active; Drug uptake (Heart): 0.48 % ID/g; Drug uptake (Blood): 0.18 % ID/g; Ratio [7]: 2; Drug uptake (Muscle tissue): 0.08 % ID/g; Drug uptake (Femur): 0.27 % ID/g; Drug uptake [8]: Not Active; Drug uptake [9]: Active
N#Cc1ccccc1OC[C@@H](O)CNCCNC(=O)Nc1cccc(OCCF)c1 | 265 | 0.04 nM | 
N#Cc1ccccc1OC[C@@H](O)CNCCNC(=O)Nc1ccc(F)cc1 | 150 | 0.1 nM | 
N#Cc1ccccc1OC[C@@H](O)CNCCNC(=O)Nc1ccc(F)nc1 | 345 | 0.3 nM | 
N#Cc1ccccc1OC[C@@H](O)CNCCNC(=O)Nc1ccc(OCCC[18F])cc1 |  |  | Drug uptake (Lung [3]): 0.63 % ID/g; Drug uptake (Spleen): 0.4 % ID/g; Drug uptake (Liver [4]): 1.03 % ID/g; Drug uptake (Kidney): 1.38 % ID/g; Drug uptake (Liver [5]): Active; Drug uptake (Liver [6]): Not Active; Drug uptake (Heart): 0.42 % ID/g; Drug uptake (Blood): 0.21 % ID/g; Ratio [7]: 1.5; Drug uptake (Muscle tissue): 0.09 % ID/g; Drug uptake (Femur): 0.63 % ID/g; Drug uptake [8]: Not Active; Drug uptake [9]: Active
N#Cc1ccccc1OC[C@@H](O)CNCCNC(=O)Nc1ccc(OCCF)cc1 | 448 | 0.08 nM | 
N#Cc1ccccc1OC[C@@H](O)CNCCNC(=O)Nc1ccccc1F | 69 | 0.2 nM | 
N#Cc1ccccc1OC[C@@H](O)CNCCNC(=O)Nc1cccc(OCC[18F])c1 |  |  | Drug uptake (Lung [10]): Active; Drug uptake (Lung [3]): 0.79 % ID/g; Drug uptake (Spleen): 0.52 % ID/g; Drug uptake (Liver [4]): 1.14 % ID/g; dose excreted at 0.5 h [11]: 76%; Drug metabolism (Rattus norvegicus [12]): 83%; Drug uptake (Kidney): 2.01 % ID/g; Drug uptake (Liver [5]): Active; Drug uptake (Liver [6]): Not Active; Drug uptake (Heart): 0.62 % ID/g; Drug uptake (Blood): 0.14 % ID/g; Drug uptake (Liver [13]): Active; Ratio [7]: 1.27; Drug uptake (Muscle tissue): 0.1 % ID/g; Drug uptake [14]: Active; Drug metabolism (Rattus norvegicus [15]): 44%; Drug uptake (Femur): 0.16 % ID/g; Drug uptake [8]: Not Active; Drug uptake [9]: Active
N#Cc1ccccc1OC[C@@H](O)CNCCNC(=O)Nc1ccc(OCCF)nc1 | 50 | 0.1 nM | 
N#Cc1ccccc1OC[C@@H](O)CNCCNC(=O)N1CCOCC1 | 4 | 20 nM | 
